Source: US7838659B2, “Herpesvirus ribozymes and vectors” (priority 2003, dated 2010)

Tests used:
Assay type in all cases: cell-based
[1] = tested on: HSV-1 PAAr5 (drug resistant); assay: Multi-step replication, comparison with acyclovir, strain PAAr5; conditions: strain PAAr5, MOI 10^−3, 48 hours, rabbit skin cells
Method: (§1) Four groups were included when testing the impact of the ribozyme on replication of drug resistant HSV-1 strains: mock infection and Ad-UL20 Rz treatments were performed as before; an adenovirus expressing GFP was used instead of ψ5; and an acyclovir (ACV) treatment (0.1 μM) was included. The dosage of acyclovir was determined by the threshold dose needed to distinguish drug resistance of HSV-1 (Thi, T. N., C. Deback, I. Malet, P. Bonnafous, Z. Ait-Arkoub, and H. Agut. 2006. Rapid determination of antiviral drug susceptibility of herpes simplex virus types 1 and 2 by real-time PCR. Antiviral Res 69:152-7). Forty-eight hours were allowed for HSV-1 infection to develop before cell lysates were harvested for titration. Five HSV-1 strains were tested: 17syn+ and KOS are drug sensitive strains, and PAAr5, tkLTRZ1, and ACG^r4 are drug resistant isolates.
(§2) UL20-Rz154 inhibits viral replication of HSV-1 drug resistant strains. Ad-UL20 Rz154 was compared with acyclovir treatment in a multi-step infection at an MOI of 10^−3. […] In the case of PAAr5 infection, UL20 ribozyme reduced viral production by 99%; against tkLTRZ1 infection, it reduced virus yield by 76%; and against ACGr4 by 70%. Therefore, knocking down the expression of the UL20 gene led to a significant inhibition of HSV-1 viral replication in viral strains that were resistant to a conventional antiviral drug.

[2] = tested on: HSV-1 17syn+ (drug sensitive); assay: Multi-step replication, comparison with acyclovir, strain 17syn+; conditions: MOI 10^−3, 48 hours, rabbit skin cells
Method: as §1, §2

[3] = tested on: HSV-1 ACGr4 (drug resistant); assay: Multi-step replication, comparison with acyclovir, strain ACGr4; conditions: strain ACGr4, MOI 10^−3, 48 hours, rabbit skin cells
Method: as §1, §2

[4] = tested on: HSV-1 KOS (drug sensitive); assay: Multi-step replication, comparison with acyclovir, strain KOS; conditions: MOI 10^−3, 48 hours, rabbit skin cells
Method: as §1, §2

[5] = tested on: HSV-1 tkLTRZ1 (drug resistant); assay: Multi-step replication, comparison with acyclovir, strain tkLTRZ1; conditions: strain tkLTRZ1, MOI 10^−3, 48 hours, rabbit skin cells
Method: as §1, §2

## Nc1nc2c(ncn2COCCO)c(=O)[nH]1 [acyclovir]
[1]
  reduction of viral production: no significant difference in HSV yields
[2]
  inhibition of HSV-1 viral production: 99%
[3]
  reduction of virus yield: no significant difference in HSV yields
[4]
  inhibition of HSV-1 viral production: 80%
[5]
  reduction of virus yield: no significant difference in HSV yields
